Tests used:
HT29 cells = test: Tumor cell apoptosis in HT29 colon cancer cells (Annexin V flow cytometry; caspase-3 activation); type: cell-based, human; settings: for tumor cell apoptosis: HT29 cells, any dose, Annexin V staining, flow cytometry
Protocol: FIG. 2A, HT-29 cells were treated with a general caspase inhibitor (Q-VD-OPh) and simultaneously treated with the indicated compounds. Apoptosis was assessed by Annexin V/PI staining. FIG. 2B, HT-29 cells were stably transfected with CrmA, DN-FADD plasmid constructs (a dominant-negative variant of FAS-associated via death domain protein) or an empty vector. These cell lines, as well as untransfected cells, were then treated with the indicated compounds and apoptosis was assessed by Annexin V/PI staining. n=3, * indicates p<0.05, ** indicates p<0.01, ns indicates p>0.05.
(§1) While this makes TRAIL a promising anti-cancer therapy, there are numerous examples of both inherent and acquired resistance to TRAIL treatment. […] It was posited that this may have been due to either inherent or acquired TRAIL resistance. Therefore, a panel of well-established human colorectal tumor cell lines (HT-29, COLO-205 and SW-620) was analyzed to determine TRAIL sensitivity. […] Therefore, this human cell line was selected for use as a model for in vitro experiments.
To assess the effect of 2DG on HT29 cells, HT29 cells were treated with increasing doses (0-50 mM) of 2DG in vitro.
(§2) To assess the effect of TRAIL on colon (HT29, COLO-205, SW-620), gastric (AGS) and pancreatic (PANC-1) cancer cell lines, cells were treated with increasing doses (0, 6.25, 12.5, 25, 50 and 100 ng/mL) of TRAIL in vitro.
To determine the mechanism of apoptosis, HT-29 and SW-620 cells were treated every 6 hours with 2DG, TRAIL or 2DG and TRAIL. […] HT-29 cells were also fractionated into cytoplasmic and membrane-heavy fractions, with COXIV as a marker of the membrane heavy fraction and beta actin as a loading control.
(§3) TRAIL mediates its effects by binding to cell surface death receptors 4 and 5 (DR4, DR5). This initiates the extrinsic apoptosis pathway ultimately resulting in cell death. Therefore, it was determined whether 2DG primes tumor cells to TRAIL by altering DR expression in HT29 cells. […] By comparison, DR4 levels were unchanged by 2DG treatment. In addition, increased surface expression of DR5 correlated with TRAIL sensitivity over time.

[1] = clinical trials; cited from earlier work
DR5 = test: Death receptor expression in HT29 cells after 2DG: DR5; type: cell-based, human; settings: HT29 cells after treatment with 2DG
Protocol: as §3

DR4 = test: Death receptor expression in HT29 cells after 2DG: DR4; type: cell-based, human; settings: HT29 cells after treatment with 2DG
Protocol: as §3

COLO-205 = test: Tumor cell apoptosis in COLO-205 colon cancer cells (Annexin V flow cytometry); type: cell-based, human; settings: TRAIL 0-100 ng/mL, any dose, Annexin V staining
Protocol: as §1, §2

[2] = test system: AGS gastric cancer cell line; test: Tumor cell apoptosis in AGS gastric cancer cell line (Annexin V flow cytometry; caspase-3 activation); type: cell-based; settings: TRAIL 0-100 ng/mL, any dose, Annexin V staining
Protocol: as §2

[3] = test system: human cancer patients with various tumor histologies; settings: phase I trial, cited from earlier work
[4] = test system: PANC-1 pancreatic cancer cell line; test: Tumor cell apoptosis in PANC-1 pancreatic cancer cell line (Annexin V flow cytometry; caspase-3 activation); type: cell-based; settings: TRAIL 0-100 ng/mL, any dose, Annexin V staining
Protocol: as §2

SW-620 = test: Tumor cell apoptosis in SW-620 colon cancer cells (Annexin V flow cytometry; caspase-3 activation); type: cell-based, human; settings: TRAIL 0-100 ng/mL, any dose, Annexin V staining
Protocol: as §1, §2

With `CC(C)[C@H](NC(=O)c1ccc2ccccc2n1)C(=O)N[C@@H](CC(=O)O)C(=O)COc1c(F)cccc1F` [Q-VD-OPh] the “effect of caspase blockade on anti-tumor effect of 2DG and TRAIL” value (HT29 cells; HT-29, simultaneous treatment with 2DG and TRAIL, Annexin V/PI staining, FIG. 2A) was “inhibited the anti-tumor effect of the combination treatment”.
For `CC(=O)N[C@@H](CS)C(=O)O` [N-acetylcysteine], the “effect on cytotoxicity of 2DG and oxaliplatin” value (human colon cancer cells) was “can abrogate this cytotoxicity”.
In the case of `OCC1OC(O)CC(O)[C@@H]1O` (stereo in doubt) [2DG, 2-deoxy-D-glucose], the tumor cell apoptosis (HT29 cells; 2DG 0-50 mM) is given as no more than 5%, the tolerability [1] is given as “well-tolerated” and the “DR5 mRNA level” value (DR5) is given as “upregulated”. For the same molecule, the “DR5 total protein level” value (DR5) was “upregulated” and the DR4 levels (DR4) was “unchanged”.
In the case of “TRAIL: TNF-related apoptosis-inducing ligand; cytokine that causes apoptosis by binding death receptors DR4 and DR5”, the tumor cell apoptosis (COLO-205) is reported as no more than 12%, the tumor cell apoptosis [2] is reported as no more than 12% and the tumor cell apoptosis (HT29 cells; TRAIL 0-100 ng/mL) is reported as no more than 12%. The “TRAIL sensitivity (TRAIL-induced apoptosis)” value (HT29 cells; HT-29 cell line, maximal doses) was “resistance to TRAIL at even maximal doses”, the tolerability [3] was “well-tolerated” and the objective tumor response ([3]; patients with colorectal cancer) was “none of the patients with colorectal cancer had an objective tumor response”. It also gave a tumor cell apoptosis [4] of no more than 12% and a tumor cell apoptosis (SW-620) of no more than 12%.
